{"source": "patent USRE38352E1", "about": "“Polymerase chain reaction assays for monitoring antiviral therapy and making therapeutic decisions in the treatment of acquired immunodeficiency syndrome” (priority 1992, dated 2003)", "key": {"plasma HIV RNA [1]": {"tested_on": "plasma HIV RNA", "test": "Plasma HIV RNA copy number by cDNA gene amplification (PCR) and enzyme-linked affinity assay", "type": "in vivo, human (HIV antibody-positive subjects)", "from_the_text": "After informed consent was obtained, whole blood samples were collected by venipuncture in the presence of acid-citrate-dextrose as an anticoagulant. A single plasma sample was collected from 39 HIV antibody-positive subjects who were not receiving antiretroviral therapy at the time of collection and from 33 HIV antibody-positive subjects who were currently on and had received AZT for a minimum of 3 mo.\nTwo plasma samples were collected from an additional 27 subjects before and 1 month after initiation of dideoxynucleoside therapy. 18 of these subjects received 500 mg/d of AZT orally. Seven subjects received a combination of zidovudine (150-600 mg/d) and 2′,3′-dideoxyinosine (ddI) (134-500 mg/d). Two patients received 500 mg/d of ddI alone (see Table I for individual subject characteristics). Finally, nine of these subjects had two plasma samples taken 1-3 wk. before initiating antiretroviral therapy and two plasma samples taken 1 and 2 mo. after commencing therapy. Plasma was separated within 4 h. by centrifugation at 500 g for 10 min. A second centrifugation was performed on the plasma at 500 g for 30 min. to remove any cellular material. 200 μl of plasma was then mixed with 200 μl of a solution containing 5M guanidinium thiocyanate, vortexed briefly, and stored at −70° C. until further use. All samples were assayed within 3 mo. of collection. To decrease variance, all specimens to be compared from the same subject were run in the same assay.\nRNA was extracted from plasma by the method described in Chomczynski et al., 1987, Ann. Biochem. 162:156-159. Briefly, 200 μl of clarified plasma to which 200 μl of 5M guanidinium thiocyanate had previously been added was extracted with phenol/chloroform and precipitated with isopropanol. The resulting pellet was then washed in 75% ethanol, dried, and brought up in diethylpyrocarbonate treated, glass distilled water.\nHIV RNA was transcribed to cDNA using Moloney murine leukemia virus reverse transcriptase (Bethesda Research Laboratories, Gaithersburg, Md.) by the method described in Kawasaki, 1990, “In PCR Protocols: A Guide to Methods and Applications” pp. 21-27, M. A. Innis, D. H. Gelfand, J. J. Sninsky, and T. J. White, eds. Academic Press, Berkeley, Calif. Oligomers used for amplification included SK38, SK39, and SK19 (Kellog et al., 1990, “In PCR Protocols: A Guide to Methods and Applications,” pp. 337-348, M. A. Innis, D. H. Gelfand, J. J. Sninsky, and T. J. White, eds. Academic Press, Berkeley, Calif.). Biotinylation of SK38 and horseradish peroxidase (HRP) labeling of probe SK19 were prepared as described in Levenson et al., 1990, “In PCR Protocols: A Guide to Methods and Applications,” pp. 99-112M. S. Innis, D. H. Gelfand, J. J. Sninsky, and T. J. White, eds. Academic Press, Berkeley, Calif. Amplification of HIV cDNA was carried out as follows: to a 100-μl reaction mixture was added the cDNA, 50 pmol of primers SK38 and SDK39, […] of each dNTP, 10 mM Tris (pH 8.3), 2.5 mM MgCl2, 50 mM KCl, and 2.5 U of recombiTaq DNA polymerase (Perkin-Elmer Cetus, Norwalk, Conn.). The mixture was then overlaid with 50 μl of mineral oil. Tubes were placed in a DNA thermal cycler (Perkin-Elmer Cetus) for 30 cycles of amplification with the following program: 95° C./30 s, 55° C./30s, and 72° C./60 s for denaturation, annealing, and extension, respectively. Negative and positive controls which included both high and low copy number HIV RNA and DNA were added at each step.\nTo detect and quantitate PCR product, 96-well microplates (Maxisorp; Nunc, Naperville, Ill.) were coated with 100 μl of a 0.1 mg/ml solution of avidin (Sigma Chemical Co., St. Louis, Mo.) in 50 mM Na2CO3 (pH 9.6) overnight at room temperature. Wells were then washed twice with PBS. Wells were then filled with 300 μl of a blocking solution containing 5X Denhardt's solution, 1% gelatin (Sigma), […] sheared herring sperm DNA (Promega Biotec, Madison, Wis.) at least overnight at 4° C. […]"}, "[2]": {"tested_on": "HIV virus stock from patient PBMC", "test": "AZT sensitivity assay (inhibition of P24 production in donor PBMC)", "type": "cell-based", "conditions": "Human immunodeficiency virus 1, PBMC", "description": "Patient PBMC were cocultured with mitogen-stimulated PBMC from healthy HIV-seronegative donors. Supernatants from these cultures were collected and frozen when the HIV P24 antigen concentration exceeded 10,000 pg/ml. 30-100 TCID50 (50% tissue culture infectious dose) of virus stock was used to infect one million donor PBMC pretreated with different concentrations of AZT (0.0 μM, 0.005 μM, 0.05 μM, 0.5 μM, 5.0 μM). After 7 days, P24 antigen was measured in the cell free supernatant from the cultures with and without zidovudine. The concentration of AZT required to inhibit P24 production by 90% (IC90) as compared to the drug free cultures was determined by nonlinear regression analysis (Chou et al., 1984, Adv. Enzyme Regulation 22:27-55).\nAll comparisons between the patients with mutant and wild type strains were performed using the student's t-test. The calculations on the IC90s determined by the zidovudine sensitive assay were performed using the logl10 transformed IC90 (i.e., geometric means were used rather than arithmetic means)."}, "[3]": {"tested_on": "HIV with codon 215 mutation", "conditions": "mutation at codon 215; cited from earlier work"}, "plasma HIV RNA [4]": {"tested_on": "plasma HIV RNA", "conditions": "patients receiving AZT; ultracentrifugation, 40 cycles (Ottman et al.); cited from earlier work"}}, "note": "Values joined by “and” are separate entries in the source; they are usually repeats but may differ in a detail not shown here. Equal entries are not always repeated. Where two headings read alike, the source gives them in different places."}
{"compound": "Cc1cn([C@H]2C[C@H](N=[N+]=[N-])[C@@H](CO)O2)c(=O)[nH]c1=O", "note": "[AZT, zidovudine]", "values": [{"measurement": "mean HIV RNA copy number", "setting": "plasma HIV RNA [1]; 14 subjects on AZT with CD4 count <200/mm^3", "result": "295±5 per 200 μl of plasma"}, {"measurement": "mean HIV RNA copy number", "setting": "plasma HIV RNA [1]; 19 subjects on AZT with CD4 count >200/mm^3, below level of detection", "result": "16±5 per 200 μl of plasma"}, {"measurement": "mean plasma HIV RNA copy number", "setting": "plasma HIV RNA [1]; 33 subjects currently on AZT (minimum 3 mo), mean±SEM, untreated 690±360", "result": "134±219 per 200 μl of plasma"}, {"measurement": "subjects with positive HIV RNA signal", "setting": "plasma HIV RNA [1]; AZT-treated subjects with <200 CD4 cells", "result": "9 of 14"}, {"measurement": "subjects with positive HIV RNA signal", "setting": "plasma HIV RNA [1]; all subjects receiving AZT, untreated 32 of 39", "result": "16 of 33"}, {"measurement": "Post HIV RNA", "setting": "plasma HIV RNA [1]; in vivo", "result": "2769/437 copy number/200 μl of plasma"}, {"measurement": "Pre HIV RNA", "setting": "plasma HIV RNA [1]; in vivo", "result": "2769/437 copy number/200 μl of plasma"}, {"measurement": "subjects with detectable HIV RNA signal", "setting": "plasma HIV RNA [1]; in vivo", "result": "7 of 19"}, {"measurement": "Post HIV RNA", "setting": "plasma HIV RNA [1]; individual patient, 1 mo after initiation, AZT 500 mg/d", "result": "77 copy number/200 μl of plasma and 57 copy number/200 μl of plasma and 42 copy number/200 μl of plasma and 94/94 copy number/200 μl of plasma and 0/0 copy number/200 μl of plasma (2×) and 65 copy number/200 μl of plasma and 52 copy number/200 μl of plasma and 50 copy number/200 μl of plasma and 45 copy number/200 μl of plasma and 95/95 copy number/200 μl of plasma and 0 copy number/200 μl of plasma (3×) and 72 copy number/200 μl of plasma and 925 copy number/200 μl of plasma and 90 copy number/200 μl of plasma"}, {"measurement": "Pre HIV RNA", "setting": "plasma HIV RNA [1]; individual patient, before initiation of therapy", "result": "100 copy number/200 μl of plasma and 87 copy number/200 μl of plasma and 40 copy number/200 μl of plasma and 94/94 copy number/200 μl of plasma and 0/0 copy number/200 μl of plasma (2×) and 93 copy number/200 μl of plasma and 105 copy number/200 μl of plasma and 123 copy number/200 μl of plasma and 78 copy number/200 μl of plasma and 95/95 copy number/200 μl of plasma and 301 copy number/200 μl of plasma and 958 copy number/200 μl of plasma and 2014 copy number/200 μl of plasma and 106 copy number/200 μl of plasma and 130 copy number/200 μl of plasma and 550 copy number/200 μl of plasma"}, {"measurement": "IC90", "setting": "[2]; 168 h, isolates from AZT-naive patients, 7 days, read-out: IC90 (inhibition of P24 production by 90%), range", "result": "2 to 38", "unit": "nM"}, {"measurement": "IC90", "setting": "[2]; nine patients with a mutation at codon 215, read-out: IC90 range", "result": "30 to 8000", "unit": "nM"}, {"measurement": "IC90", "setting": "[2]; read-out: IC90 range, eight patients with wild type form at codon 215", "result": "20 to 280", "unit": "nM"}, {"measurement": "IC90", "setting": "[2]; read-out: geometric mean IC90, eight patients with wild type form at codon 215, post-treatment PBMC", "result": 40, "unit": "nM"}, {"measurement": "IC90", "setting": "[2]; read-out: geometric mean IC90, nine patients with a mutation at codon 215", "result": 410, "unit": "nM"}, {"measurement": "decrease in zidovudine susceptibility", "setting": "[3]", "result": 16, "unit": "fold"}, {"measurement": "patients with detectable plasma HIV RNA signal", "setting": "plasma HIV RNA [4]", "result": "24 of 25"}]}
